Data taken from ChEMBL document CHEMBL2429833, “A new class of bactericidal agents against S. aureus, MRSA and VRE derived from bisindolylmethane” (Med Chem Res, 2013).
≈ marks a conversion by molar mass, not a printed value. Calls of active or inactive are those of the source. The calls are words filed in the database; no cut-off is given here.

Columns and labels:
Escherichia coli = assay: Antibacterial activity against Escherichia coli ATCC 25922 after 24 hrs by microdilution method; assay type: functional, organism-based
Staphylococcus aureus [1] = assay: Antibacterial activity against Staphylococcus aureus ATCC 29213 after 24 hrs by microdilution method; assay type: functional; settings: ATCC 29213, 24 h
Enterococcus faecalis [2] = assay: Antibacterial activity against vancomycin-resistant Enterococcus faecalis after 24 hrs by microdilution method; assay type: functional
Staphylococcus aureus [3] = assay: Antibacterial activity against methicillin-resistant Staphylococcus aureus after 24 hrs by microdilution method; assay type: functional
Enterococcus faecalis [4] = assay: Bactericidal activity against vancomycin-resistant Enterococcus faecalis after 24 hrs; assay type: functional
Pseudomonas aeruginosa = assay: Antibacterial activity against Pseudomonas aeruginosa ATCC 27853 after 24 hrs by microdilution method; assay type: functional, organism-based
Staphylococcus aureus [5] = assay: Bactericidal activity against methicillin-resistant Staphylococcus aureus after 24 hrs; assay type: functional
Staphylococcus aureus [6] = assay: Bactericidal activity against Staphylococcus aureus ATCC 29213 after 24 hrs; assay type: functional; settings: ATCC 29213, 24 h

Compound	Activity (Escherichia coli)	MIC (Staphylococcus aureus [1])	MIC (Enterococcus faecalis [2])	MIC (Staphylococcus aureus [3])	MBC (Enterococcus faecalis [4])	Activity (Pseudomonas aeruginosa)	MBC (Staphylococcus aureus [5])	MBC (Staphylococcus aureus [6])
CC1(C)CC(c2c[nH]c3ccc(Br)cc23)(c2c[nH]c3ccc(Br)cc23)c2ccc(O)cc2O1	inactive	2 µg/mL (≈ 3.53 µM)	4 µg/mL (≈ 7.06 µM)	2 µg/mL (≈ 3.53 µM)	4 µg/mL (≈ 7.06 µM)	inactive	2 µg/mL (≈ 3.53 µM)	2 µg/mL (≈ 3.53 µM)
CCCCCCCCC(c1c[nH]c2ccc(Br)cc12)c1c[nH]c2ccc(Br)cc12	inactive	> 256 µg/mL	> 256 µg/mL	> 256 µg/mL	–	inactive	–	–
CCOc1ccc2c(c1)OC(C)(C)CC2(c1c[nH]c2ccc(Br)cc12)c1c[nH]c2ccc(Br)cc12	inactive	8 µg/mL (≈ 13.5 µM)	32 µg/mL (≈ 53.8 µM)	32 µg/mL (≈ 53.8 µM)	32 µg/mL (≈ 53.8 µM)	inactive	32 µg/mL (≈ 53.8 µM)	8 µg/mL (≈ 13.5 µM)
Brc1ccc2[nH]cc(C(c3c[nH]c4ccc(Br)cc34)C3CCCCC3)c2c1	inactive	16 µg/mL (≈ 32.9 µM)	32 µg/mL (≈ 65.8 µM)	32 µg/mL (≈ 65.8 µM)	32 µg/mL (≈ 65.8 µM)	inactive	32 µg/mL (≈ 65.8 µM)	32 µg/mL (≈ 65.8 µM)
CC(c1ccccc1)(c1c[nH]c2ccc(Br)cc12)c1c[nH]c2ccc(Br)cc12	inactive	> 256 µg/mL	> 256 µg/mL	> 256 µg/mL	–	inactive	–	–
COc1ccc(Br)cc1C(c1c[nH]c2ccc(Br)cc12)c1c[nH]c2ccc(Br)cc12	inactive	128 µg/mL (≈ 217 µM)	256 µg/mL (≈ 435 µM)	256 µg/mL (≈ 435 µM)	–	inactive	–	–
Brc1ccc2[nH]cc(C(c3ccc4ccccc4c3)c3c[nH]c4ccc(Br)cc34)c2c1	inactive	16 µg/mL (≈ 30.2 µM)	32 µg/mL (≈ 60.3 µM)	32 µg/mL (≈ 60.3 µM)	32 µg/mL (≈ 60.3 µM)	inactive	32 µg/mL (≈ 60.3 µM)	16 µg/mL (≈ 30.2 µM)
N#Cc1ccc2[nH]cc(C(c3ccc(F)cc3)c3c[nH]c4ccc(C#N)cc34)c2c1	inactive	1 µg/mL (≈ 2.56 µM)	8 µg/mL (≈ 20.5 µM)	1 µg/mL (≈ 2.56 µM)	8 µg/mL (≈ 20.5 µM)	inactive	1 µg/mL (≈ 2.56 µM)	1 µg/mL (≈ 2.56 µM)
O=[N+]([O-])c1ccc(C(c2c[nH]c3ccc(Br)cc23)c2c[nH]c3ccc(Br)cc23)cc1	inactive	4 µg/mL (≈ 7.62 µM)	8 µg/mL (≈ 15.2 µM)	8 µg/mL (≈ 15.2 µM)	8 µg/mL (≈ 15.2 µM)	inactive	8 µg/mL (≈ 15.2 µM)	4 µg/mL (≈ 7.62 µM)
Brc1ccc(C(c2c[nH]c3ccc(Br)cc23)c2c[nH]c3ccc(Br)cc23)cc1	inactive	8 µg/mL (≈ 14.3 µM)	64 µg/mL (≈ 114 µM)	32 µg/mL (≈ 57.2 µM)	64 µg/mL (≈ 114 µM)	inactive	64 µg/mL (≈ 114 µM)	16 µg/mL (≈ 28.6 µM)
Brc1ccc2[nH]cc(C(c3ccccc3)c3c[nH]c4ccc(Br)cc34)c2c1	inactive	256 µg/mL (≈ 533 µM)	256 µg/mL (≈ 533 µM)	256 µg/mL (≈ 533 µM)	–	inactive	–	–
COc1ccc(OC)c(C(c2c[nH]c3ccc(Br)cc23)c2c[nH]c3ccc(Br)cc23)c1	inactive	128 µg/mL (≈ 237 µM)	> 256 µg/mL	256 µg/mL (≈ 474 µM)	–	inactive	–	–
Clc1ccc(C(c2c[nH]c3ccc(Br)cc23)c2c[nH]c3ccc(Br)cc23)cc1	inactive	4 µg/mL (≈ 7.77 µM)	8 µg/mL (≈ 15.5 µM)	8 µg/mL (≈ 15.5 µM)	8 µg/mL (≈ 15.5 µM)	inactive	8 µg/mL (≈ 15.5 µM)	4 µg/mL (≈ 7.77 µM)
O=[N+]([O-])c1ccc2[nH]cc(C(c3ccc(F)cc3)c3c[nH]c4ccc([N+](=O)[O-])cc34)c2c1	inactive	> 256 µg/mL	> 256 µg/mL	> 256 µg/mL	–	inactive	–	–
CCCCCCCC(c1c[nH]c2ccc(Br)cc12)c1c[nH]c2ccc(Br)cc12	inactive	> 256 µg/mL	> 256 µg/mL	> 256 µg/mL	–	inactive	–	–
COc1ccc(C(c2c[nH]c3ccc(Br)cc23)c2c[nH]c3ccc(Br)cc23)cc1OC	inactive	128 µg/mL (≈ 237 µM)	256 µg/mL (≈ 474 µM)	256 µg/mL (≈ 474 µM)	–	inactive	–	–
O=C(O)c1cn(C2CC2)c2cc(N3CCNCC3)c(F)cc2c1=O [CIPROFLOXACIN]	–	0.25 µg/mL (≈ 0.754 µM)	64 µg/mL (≈ 193 µM)	–	64 µg/mL (≈ 193 µM)	–	32 µg/mL (≈ 96.6 µM)	0.5 µg/mL (≈ 1.51 µM)
CCCC(c1c[nH]c2ccc(Br)cc12)c1c[nH]c2ccc(Br)cc12	inactive	> 256 µg/mL	> 256 µg/mL	> 256 µg/mL	–	inactive	–	–
CN(C)c1ccc(C(c2c[nH]c3ccc(Br)cc23)c2c[nH]c3ccc(Br)cc23)cc1	inactive	64 µg/mL (≈ 122 µM)	256 µg/mL (≈ 489 µM)	128 µg/mL (≈ 245 µM)	–	inactive	–	–
COc1cccc(C(c2c[nH]c3ccc(Br)cc23)c2c[nH]c3ccc(Br)cc23)c1OC	inactive	256 µg/mL (≈ 474 µM)	> 256 µg/mL	256 µg/mL (≈ 474 µM)	–	inactive	–	–
O=[N+]([O-])c1ccc2[nH]cc(C(c3ccc(O)cc3)c3c[nH]c4ccc([N+](=O)[O-])cc34)c2c1	inactive	1 µg/mL (≈ 2.33 µM)	2 µg/mL (≈ 4.67 µM)	1 µg/mL (≈ 2.33 µM)	2 µg/mL (≈ 4.67 µM)	inactive	1 µg/mL (≈ 2.33 µM)	1 µg/mL (≈ 2.33 µM)
Oc1ccc(C(c2c[nH]c3ccc(Br)cc23)c2c[nH]c3ccc(Br)cc23)cc1	inactive	0.5 µg/mL (≈ 1.01 µM)	2 µg/mL (≈ 4.03 µM)	1 µg/mL (≈ 2.02 µM)	2 µg/mL (≈ 4.03 µM)	inactive	1 µg/mL (≈ 2.02 µM)	0.5 µg/mL (≈ 1.01 µM)
c1ccc(C(c2c[nH]c3ccccc23)c2c[nH]c3ccccc23)cc1	inactive	> 256 µg/mL	> 256 µg/mL	> 256 µg/mL	–	inactive	–	–
N#Cc1ccc2[nH]cc(C(c3ccc(O)cc3)c3c[nH]c4ccc(C#N)cc34)c2c1	inactive	> 256 µg/mL	> 256 µg/mL	> 256 µg/mL	–	inactive	–	–
COc1ccc(C(c2c[nH]c3ccc(Br)cc23)c2c[nH]c3ccc(Br)cc23)cc1	inactive	16 µg/mL (≈ 31.4 µM)	32 µg/mL (≈ 62.7 µM)	32 µg/mL (≈ 62.7 µM)	32 µg/mL (≈ 62.7 µM)	inactive	32 µg/mL (≈ 62.7 µM)	32 µg/mL (≈ 62.7 µM)
COc1ccc2c(c1)OC(C)(C)CC2(c1c[nH]c2ccc(Br)cc12)c1c[nH]c2ccc(Br)cc12	inactive	4 µg/mL (≈ 6.89 µM)	8 µg/mL (≈ 13.8 µM)	4 µg/mL (≈ 6.89 µM)	8 µg/mL (≈ 13.8 µM)	inactive	8 µg/mL (≈ 13.8 µM)	4 µg/mL (≈ 6.89 µM)
COc1ccc(C(c2c[nH]c3ccc(Br)cc23)c2c[nH]c3ccc(Br)cc23)c(OC)c1	inactive	256 µg/mL (≈ 474 µM)	> 256 µg/mL	256 µg/mL (≈ 474 µM)	–	inactive	–	–
CC(C)(c1c[nH]c2ccc(Br)cc12)c1c[nH]c2ccc(Br)cc12	inactive	> 256 µg/mL	> 256 µg/mL	> 256 µg/mL	–	inactive	–	–
